In PMC11257762, “Psoralen Isolated from the Roots of Dorstenia psilurus Welw. Modulate Th1/Th2 Cytokines and Inflammatory Enzymes in LPS-Stimulated RAW 264.7 Macrophages” (Mediators of Inflammation, 2024):
In brackets after ≈: the same amount, converted by molar mass. Read-outs that look alike come from different tables or passages of the source. Marks after values point to notes of the source that are not given here.

Tests used:
[1] = tested on: NO production in LPS-activated RAW 264.7 macrophages; test: Inhibition of nitric oxide (NO) production in LPS-activated RAW 264.7 macrophages (Griess reagent); assay type: cell-based, mouse; conditions: for IC50: Mus musculus
Procedure: The mouse-derived macrophage cell line RAW 264.7, purchased from the American Type Culture Collection (ATCC TIB-71, Rockville, MD, USA), was cultured in DMEM medium supplemented with 10% FCS and 1% penicillin/streptomycin/fungizone (PSF) under conventional cell culture conditions at a temperature of 37°C and a carbon dioxide concentration of 5% in a controlled humid atmosphere. Routine maintenance in culture (passage) was performed following ATCC instructions.
The RAW 264.7 macrophage cells were introduced into 96 well microtiter plates at a density of 2 × 10^5 cells/mL. Subsequently, cells were subjected to activation through incubation in a medium consisting of 1 µg/mL LPS alone, acting as the control. Furthermore, lipopolysaccharide was combined with varying concentrations of samples dissolved in DMSO (concentration ranges were 200–1.56 µg/mL for extracts and fractions and 100–0.78 µM for compounds). […] The quantity of nitric oxide released from macrophages was assessed using Griess reagent as previously described. All experiments for the measurement of nitric oxide inhibition were conducted three times in triplicate.

[2] = target: T1, 15-LOX from G. max (Glycine max, UniProt P08170); test: Soybean LOX inhibition assay (ferrous oxidation-xylenol orange); assay type: biochemical; conditions: linoleic acid 140 µM, pH 7.4, 25°C, mean ± SD
T1 sequence (P08170 1-839): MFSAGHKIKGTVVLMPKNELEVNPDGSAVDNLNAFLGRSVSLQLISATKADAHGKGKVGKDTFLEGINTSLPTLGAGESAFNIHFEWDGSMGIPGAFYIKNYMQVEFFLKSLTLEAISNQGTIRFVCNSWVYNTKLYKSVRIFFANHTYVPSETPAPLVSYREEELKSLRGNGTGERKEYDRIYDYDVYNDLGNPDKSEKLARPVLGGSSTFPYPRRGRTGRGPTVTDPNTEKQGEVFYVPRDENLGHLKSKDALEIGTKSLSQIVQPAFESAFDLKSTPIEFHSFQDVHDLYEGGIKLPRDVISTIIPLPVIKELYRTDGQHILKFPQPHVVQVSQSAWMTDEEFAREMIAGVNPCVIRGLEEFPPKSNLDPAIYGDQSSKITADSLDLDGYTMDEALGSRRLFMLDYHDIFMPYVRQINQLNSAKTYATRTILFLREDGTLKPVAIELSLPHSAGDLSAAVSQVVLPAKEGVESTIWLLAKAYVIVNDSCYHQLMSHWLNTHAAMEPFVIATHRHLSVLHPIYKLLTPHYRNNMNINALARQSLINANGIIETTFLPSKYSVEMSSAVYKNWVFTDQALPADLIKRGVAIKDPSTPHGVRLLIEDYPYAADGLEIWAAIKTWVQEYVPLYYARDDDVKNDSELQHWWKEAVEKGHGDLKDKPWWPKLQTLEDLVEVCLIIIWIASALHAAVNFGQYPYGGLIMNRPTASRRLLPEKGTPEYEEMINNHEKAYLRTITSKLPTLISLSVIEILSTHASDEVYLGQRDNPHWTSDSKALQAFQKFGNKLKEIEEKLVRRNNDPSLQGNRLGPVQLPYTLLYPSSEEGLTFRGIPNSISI
Procedure: The assay was conducted following a previously described methodology with minor adjustments. The assay is based on the measurement of the formation of the Fe3+/xylenol orange complex on a spectrophotometer at a wavelength of 560 nm. 15-LOX from G. max was incubated with samples or standard inhibitors at a temperature of 25°C for 5 min. The concentration ranges of the samples ranged from 200 to 1.56 µg/mL for extracts and fractions and from 100 to 0.78 µM for compounds. Subsequently, linoleic acid (at a final concentration of 140 µM) in Tris–HCl buffer (at a pH of 7.4 and a concentration of 50 mM), and the mixture was incubated at a temperature of 25°C for 20 min in the absence of light. The assay was concluded by adding 100 µL of FOX reagent, which consisted of sulfuric acid (at a concentration of 30 mM), xylenol orange (at a concentration of 100 µM), and iron (II) sulfate (at a concentration of 100 µM) in a methanol/water mixture (at a ratio of 9 : 1). For control, only the LOX solution and buffer were pipetted into the wells. The blanks (background) contained the LOX enzyme during incubation, but the substrate (linoleic acid) was added after the addition of the FOX reagent. […] The percentage inhibition was calculated using the following formula: % inhibition = ((Acontrol–Ablank)−(Asample−Ablank)/(Acontrol−Ablank)) ×100. Here, Acontrol represents the absorbance of the control well, Ablank represents the absorbance of the blank well, and Asample represents the absorbance of the sample well.

[3] = target: T2, COX-1 (Mus musculus, UniProt P22437); test: Fluorometric COX activity assay in LPS-stimulated RAW 264.7 cells, COX-1; assay type: cell-based; conditions: LPS 0.1 µg/mL, 24 hr, untreated control 95.19 µU/mg
T2 construct: endogenous in cells; host or cells: RAW 264.7 macrophages, LPS-stimulated
T2 sequence (P22437 27-602): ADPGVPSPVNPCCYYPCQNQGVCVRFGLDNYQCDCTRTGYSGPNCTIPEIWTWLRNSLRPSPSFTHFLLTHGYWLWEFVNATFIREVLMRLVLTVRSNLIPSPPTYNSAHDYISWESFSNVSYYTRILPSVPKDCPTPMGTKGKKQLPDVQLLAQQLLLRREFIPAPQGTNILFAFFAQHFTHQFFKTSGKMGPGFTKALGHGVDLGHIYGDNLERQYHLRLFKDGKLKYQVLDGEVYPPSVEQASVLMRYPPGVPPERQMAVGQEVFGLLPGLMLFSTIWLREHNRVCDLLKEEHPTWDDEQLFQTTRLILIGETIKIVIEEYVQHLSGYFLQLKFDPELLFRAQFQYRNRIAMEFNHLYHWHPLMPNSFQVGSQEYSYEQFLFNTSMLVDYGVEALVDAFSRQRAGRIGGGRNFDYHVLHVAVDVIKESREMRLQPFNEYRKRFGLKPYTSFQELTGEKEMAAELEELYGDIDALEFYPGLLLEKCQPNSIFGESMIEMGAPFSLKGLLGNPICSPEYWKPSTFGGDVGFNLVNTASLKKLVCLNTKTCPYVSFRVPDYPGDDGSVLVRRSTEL
Procedure: (§1) Evaluation of COX-1 and COX-2 enzyme activity was performed using the fluorometric COX activity assay kit provided by Biovision. RAW 264.7 cells were cultured at a density of 2 × 10^5 cells/mL in a 48-well microplate and allowed to adhere for a period of 24 hr. Subsequently, cells were treated with LPS at a concentration of 0.1 µg/mL and psoralen at concentrations of 5, 20, and 50 µM. The cyclooxygenase enzyme activity assay was performed after a 24 hr incubation period. To initiate the assay, cells were removed using TNE buffer containing Tris (40 mM), NaCl (150 mM), and EDTA (1 mM), followed by a washing step using 1x PBS. Cells were then resuspended in 1 mL of 1x PBS, transferred to a 1.5 mL tube, and subjected to centrifugation at 500x g for 3 min. The resulting pellet was resuspended in 0.5 mL of lysis buffer containing a protease inhibitor cocktail, followed by vortexing and incubation at 4°C for 5 min. Subsequently, the cell lysate was centrifuged at 12,000 x g for 3 min, and the supernatant was collected for the COX activity assay. The fluorometric cyclooxygenase activity assay kit provided by Biovision was utilized according to the manufacturer's instructions to assess COX activity. This assay incorporates specific inhibitors for COX-1 and COX-2 enzymes, allowing differentiation of their respective activities and those of other peroxidases.

[4] = target: T3, COX-2 (Mus musculus, UniProt Q05769); test: Fluorometric COX activity assay in LPS-stimulated RAW 264.7 cells, COX-2; assay type: cell-based; conditions: LPS 0.1 µg/mL, 24 hr, untreated control 113.81 µU/mg
T3 construct: the supernatant was collected for the COX activity assay; endogenous in cells; host or cells: RAW 264.7 macrophages, LPS-stimulated
T3 sequence (Q05769 18-604): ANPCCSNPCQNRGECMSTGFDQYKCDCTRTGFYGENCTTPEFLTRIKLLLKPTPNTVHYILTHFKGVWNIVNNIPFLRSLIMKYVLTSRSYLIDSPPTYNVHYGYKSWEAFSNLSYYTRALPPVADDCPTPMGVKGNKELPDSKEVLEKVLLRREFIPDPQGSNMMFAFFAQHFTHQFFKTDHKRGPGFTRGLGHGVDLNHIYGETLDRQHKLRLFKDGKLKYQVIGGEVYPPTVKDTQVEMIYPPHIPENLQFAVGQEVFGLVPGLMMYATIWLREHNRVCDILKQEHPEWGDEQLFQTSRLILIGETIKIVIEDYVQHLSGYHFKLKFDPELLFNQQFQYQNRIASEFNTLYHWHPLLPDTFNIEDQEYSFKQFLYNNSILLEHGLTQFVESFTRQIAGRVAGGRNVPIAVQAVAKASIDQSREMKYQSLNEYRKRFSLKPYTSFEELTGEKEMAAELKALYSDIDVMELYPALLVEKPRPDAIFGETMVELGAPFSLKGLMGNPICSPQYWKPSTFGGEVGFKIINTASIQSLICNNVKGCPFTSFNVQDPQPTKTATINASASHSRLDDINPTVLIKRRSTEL
Procedure: as §1

[5] = tested on: IFN-γ; test: Th1/Th2 cytokine measurement (cytometric bead array) in LPS-stimulated RAW 264.7 macrophages, IFN-γ; assay type: cell-based, mouse; conditions: 50 μM, 24 hr, LPS-induced RAW 264.7; reduced from 1.12 pg/mL
Procedure: (§2) RAW 264.7 cells were cultured at a concentration of 2 × 10^5 cells/mL in a 48-well microplate and allowed to adhere for 24 hr. Subsequently, they were subjected to lipopolysaccharide (LPS) treatment at a concentration of 0.1 µg/mL, along with psoralen at concentrations of 5, 20, and 50 µM. […] Following an incubation period of 24 hr, the supernatant was collected, and the levels of pro-inflammatory Th1 cytokines (IFN-γ, TNF-α, and IL-2), as well as anti-inflammatory Th2 cytokines (IL-4, IL-6, and IL-10) were quantified. The experimental protocol adhered to the manufacturer's guidelines and utilized the BD TM cytometric beads array human Th1/Th2 cytokine kit (BD-Biosciences). Data acquisition was performed using a BD LSR FortessaTM cell analyzer flow cytometer.

[6] = tested on: TNF-α; test: Th1/Th2 cytokine measurement (cytometric bead array) in LPS-stimulated RAW 264.7 macrophages, TNF-α; assay type: cell-based, mouse; conditions: 50 μM, 24 hr, LPS-induced RAW 264.7; reduced from 4,418.86 pg/mL
Procedure: as §2

[7] = tested on: IL-2; test: Th1/Th2 cytokine measurement (cytometric bead array) in LPS-stimulated RAW 264.7 macrophages, IL-2; assay type: cell-based, mouse; conditions: 50 μM, 24 hr, LPS-induced RAW 264.7; reduced from 1.032 pg/mL
Procedure: as §2

[8] = tested on: IL-4; test: Th1/Th2 cytokine measurement (cytometric bead array) in LPS-stimulated RAW 264.7 macrophages, IL-4; assay type: cell-based, mouse; conditions: 50 μM, 24 hr, LPS-induced RAW 264.7; increased from 0.81 pg/mL
Procedure: as §2

[9] = tested on: IL-6; test: Th1/Th2 cytokine measurement (cytometric bead array) in LPS-stimulated RAW 264.7 macrophages, IL-6; assay type: cell-based, mouse; conditions: 50 μM, 24 hr, LPS-induced RAW 264.7; increased from 156.96 pg/mL
Procedure: as §2

[10] = tested on: IL-10; test: Th1/Th2 cytokine measurement (cytometric bead array) in LPS-stimulated RAW 264.7 macrophages, IL-10; assay type: cell-based, mouse; conditions: 50 μM, 24 hr, LPS-induced RAW 264.7; increased from 0.857 pg/mL
Procedure: as §2

[11] = tested on: NO production in LPS-stimulated RAW 264.7 murine macrophages; design: method as in Choi et al. [47]; conditions: isolated from Trachelospermum jasminoides, ref Choi et al. [47]; cited from earlier work
[12] = RAW264.7, LPS 1 µg/mL activated RAW 264.7 macrophage cells, mean ± SD, read-out: NO inhibition IC50

Compound: O=c1ccc2cc3ccoc3cc2o1 [(1), psoralen]
- IC50 [1, 12]: 1.19 ± 0.45 µg/mL (≈ 6.39 µM)
- IC50 [2]: 18.4 µM
- COX-1 activity ([3]; psoralen 5 μM): 44.35 µU/mg
- COX-1 activity ([3]; psoralen 20 μM): 31.25 µU/mg
- COX-1 activity ([3]; psoralen 50 μM): 22.73 µU/mg
- COX-2 activity ([4]; psoralen 5 μM): 88.33 µU/mg
- COX-2 activity ([4]; psoralen 20 μM): 58.1 µU/mg
- COX-2 activity ([4]; psoralen 50 μM): 43.84 µU/mg
- IFN-γ level [5]: 0.56 pg/mL
- TNF-α level [6]: 1,032.66 pg/mL
- IL-2 level [7]: 0.551 pg/mL
- IL-4 level [8]: 2.22 pg/mL
- IL-6 level [9]: 255.31 pg/mL
- IL-10 level [10]: 1.122 pg/mL

Compound: CC[C@H](CC[C@@H](C)[C@H]1CC[C@H]2[C@@H]3CC=C4C[C@@H](O[C@@H]5O[C@H](CO)[C@@H](O)[C@H](O)[C@H]5O)CC[C@]4(C)[C@H]3CC[C@]12C)C(C)C [(3), β-sitosterol glucoside]
- IC50 [1, 12]: 26.1 ± 3.01 µg/mL (≈ 45.3 µM)
- IC50 [2]: 25.3 µM
- Reduction of NO production [11]: 72.8%

Compound: COc1ccc2c(c1)c(CC(=O)O)c(C)n2C(=O)c1ccc(Cl)cc1 [Indomethacin, indomethacin, reference compound]
- IC50 ([1]; RAW264.7, read-out: NO inhibition IC50): 3.79 ± 0.88 µg/mL (≈ 10.6 µM)

Compound: octadecanyl-3[4-hydroxyphenyl]-prop-2-enoate [(2)]
- NO inhibition IC50 ([1]; LPS 1 µg/mL activated RAW 264.7 macrophage cells, mean ± SD): 39.41 ± 2.29^g μg/mL
- 15-LOX inhibition IC50 [2]: 35.57 ± 2.35^j μg/mL
